{"source": "patent US20100041089A1", "about": "“IMPROVED METHOD FOR DETECTING CHEMICAL […]” (priority 2006, published 2010)", "system": "yeast genes (expressed mRNA)", "test": "DNA chip measurement of expressed mRNA of yeast genes after culture with a toxic chemical substance", "assay_type": "cell-based, Saccharomyces cerevisiae S288C", "conditions": "for level of expressed mRNA in the presence of chemical substance / level in the absence of chemical substance: cultured two hours with the chemical substance; for The level of expressed mRNA in the presence of chemical substance/The level of expressed mRNA in the absence of chemical substance: cultured two hours with substance", "protocol": "Yeast (Saccharomyces cerevisiae S288C (a SUC2mal mel gap2 CUP1)) were cultured at 25° C. on YPD medium (yeast extract 1%, polypeptone 2%, glucose 2%). One of toxic chemical substances was added to the cell at logarithmic growth phase, and the cell was further cultured for two hours. Cell was cultured without any chemical substance in the same condition, and was used as a control. Concentrations of the chemical substances were defined to inhibit the growth of the yeast but not lead to death.\nAfter the completion of cultivation, the culture was centrifuged to collect the cells. To the cells, sodium acetate buffer (50 mM sodium acetate, 10 mM EDTA, 1% SDS) was added, and the mixture was shaken at 65° C. for five minutes, followed by returning to room temperature, and obtaining the supernatant, which procedure was repeated two times. To the supernatant, ½ amount of a solution of phenol/chloroform (1:1) was added, and the mixture was centrifuged to give a supernatant, an equal amount of chloroform was added, and the mixture was centrifuged to give a supernatant. To the supernatant, an equal amount of isopropanol containing 0.3 M sodium acetate was added, and the mixture was allowed to stand at room temperature for 30 minutes, after which the mixture was centrifuged to give sediment of the whole RNAs. Seventy % ethanol was added to the sediment, and the mixture was again centrifuged to give sediment, which was then dried and dissolved in water. mRNA was isolated from the whole RNAs as followings. In view of the fact that a poly A chain is attached to the 3′ terminus of mRNA, a polynucleotide having a poly T structure which was immobilized on the surface of latex beads was used to trap the mRNA, and then the mRNA was washed and eluted with spine column (Oligotex-dT30<Super>mRNA Purification Kit, Takara). Reverse transcription of the mRNA was conducted with a reverse transcriptase (Super Script II Reverse Transcriptase; catalogue No. 18064-014, GibcoBRL) using fluorescence-labeled nucleotides to give cDNAs that were introduced with Cy3-dUTP or Cy5-dUTP during the reverse transcription.\nThe labeled cDNAs were dissolved in TE buffer (10 mM Tris-HCl/1 mM EDTA, pH 8.0), and the solution was dropped on the DNA chip containing the whole genes of yeast (DNA Chip Research Inc. Japan) so that the cDNAs were hybridized on the DNA chip at 65° C. for over 12 hours. The fluoresces intensity of the DNA chip was read with a scanner, and the ratio relative to the fluorescence intensity resulting from the absence of chemical substance was estimated as the following, which is shown in Tables 1 to 9.\nIn the Tables, “Intensity” indicated in the rightmost column is a value of the level of expressed mRNA of each gene in control cells as divided by the average level of the expressions of the whole genes. A gene of which mRNA level is lower in control, and is higher in cases of addition of chemical substance, is especially useful in the detection of toxic substances.\nHere, when a ratio of an amount of mRNA expressed in the presence of the chemical substance to an amount of mRNA expressed in the absence of the chemical substance is two or more, then it is considered significant."}
{"smiles": "[Cl][Cd][Cl]", "note": "[(2), CdCl2]", "values": [{"measurement": "level of expressed mRNA in the presence of chemical substance / level in the absence of chemical substance", "setting": "yeast gene YJL097W", "result": 1.1}, {"measurement": "The level of expressed mRNA in the presence of chemical substance/The level of expressed mRNA in the absence of chemical substance", "setting": "yeast gene YJL151C", "result": 2.4}, {"measurement": "The level of expressed mRNA in the presence of chemical substance/The level of expressed mRNA in the absence of chemical substance", "setting": "yeast gene YJL152W", "result": 1.5}, {"measurement": "The level of expressed mRNA in the presence of chemical substance/The level of expressed mRNA in the absence of chemical substance", "setting": "yeast gene YJL161W", "result": 2.2}, {"measurement": "The level of expressed mRNA in the presence of chemical substance/The level of expressed mRNA in the absence of chemical substance", "setting": "yeast gene YJL171C", "result": 0.7}, {"measurement": "The level of expressed mRNA in the presence of chemical substance/The level of expressed mRNA in the absence of chemical substance", "setting": "yeast gene YJR008W", "result": 1.5}, {"measurement": "level of expressed mRNA in the presence of chemical substance / level in the absence of chemical substance", "setting": "yeast gene YJR030C", "result": 4.4}, {"measurement": "The level of expressed mRNA in the presence of chemical substance/The level of expressed mRNA in the absence of chemical substance", "setting": "yeast gene YJR054W", "result": 0.9}, {"measurement": "level of expressed mRNA in the presence of chemical substance / level in the absence of chemical substance", "setting": "yeast gene YKL051W", "result": 1.1}, {"measurement": "The level of expressed mRNA in the presence of chemical substance/The level of expressed mRNA in the absence of chemical substance", "setting": "yeast gene YKL071W", "result": 3.8}, {"measurement": "The level of expressed mRNA in the presence of chemical substance/The level of expressed mRNA in the absence of chemical substance", "setting": "yeast gene YKL086W", "result": 1.1}, {"measurement": "level of expressed mRNA in the presence of chemical substance / level in the absence of chemical substance", "setting": "yeast gene YKL097C", "result": 1.6}, {"measurement": "level of expressed mRNA in the presence of chemical substance / level in the absence of chemical substance", "setting": "yeast gene YKL100C", "result": 1.1}, {"measurement": "The level of expressed mRNA in the presence of chemical substance/The level of expressed mRNA in the absence of chemical substance", "setting": "yeast gene YKL151C", "result": 3.1}, {"measurement": "The level of expressed mRNA in the presence of chemical substance/The level of expressed mRNA in the absence of chemical substance", "setting": "yeast gene YKL153W", "result": 1.4}, {"measurement": "The level of expressed mRNA in the presence of chemical substance/The level of expressed mRNA in the absence of chemical substance", "setting": "yeast gene YKL195W", "result": 0.5}, {"measurement": "level of expressed mRNA in the presence of chemical substance / level in the absence of chemical substance", "setting": "yeast gene YKR040C", "result": 3.7}, {"measurement": "The level of expressed mRNA in the presence of chemical substance/The level of expressed mRNA in the absence of chemical substance", "setting": "yeast gene YKR091W", "result": 2.3}, {"measurement": "The level of expressed mRNA in the presence of chemical substance/The level of expressed mRNA in the absence of chemical substance", "setting": "yeast gene YLR054C", "result": 1.5}, {"measurement": "The level of expressed mRNA in the presence of chemical substance/The level of expressed mRNA in the absence of chemical substance", "setting": "yeast gene YLR149C", "result": 1.9}, {"measurement": "The level of expressed mRNA in the presence of chemical substance/The level of expressed mRNA in the absence of chemical substance", "setting": "yeast gene YLR152C", "result": 1.3}, {"measurement": "The level of expressed mRNA in the presence of chemical substance/The level of expressed mRNA in the absence of chemical substance", "setting": "yeast gene YLR194C", "result": 2.2}, {"measurement": "level of expressed mRNA in the presence of chemical substance / level in the absence of chemical substance", "setting": "yeast gene YLR226W", "result": 1.8}, {"measurement": "The level of expressed mRNA in the presence of chemical substance/The level of expressed mRNA in the absence of chemical substance", "setting": "yeast gene YLR324W", "result": 1.2}, {"measurement": "level of expressed mRNA in the presence of chemical substance / level in the absence of chemical substance", "setting": "yeast gene YLR338W", "result": 1.6}, {"measurement": "The level of expressed mRNA in the presence of chemical substance/The level of expressed mRNA in the absence of chemical substance", "setting": "yeast gene YLR350W", "result": 1.9}, {"measurement": "The level of expressed mRNA in the presence of chemical substance/The level of expressed mRNA in the absence of chemical substance", "setting": "yeast gene YLR387C", "result": 1.6}, {"measurement": "level of expressed mRNA in the presence of chemical substance / level in the absence of chemical substance", "setting": "yeast gene YLR392C", "result": 0.9}, {"measurement": "level of expressed mRNA in the presence of chemical substance / level in the absence of chemical substance", "setting": "yeast gene YLR415C", "result": 2.4}, {"measurement": "level of expressed mRNA in the presence of chemical substance / level in the absence of chemical substance", "setting": "yeast gene YLR427W", "result": 1.0}, {"measurement": "The level of expressed mRNA in the presence of chemical substance/The level of expressed mRNA in the absence of chemical substance", "setting": "yeast gene YLR460C", "result": 2.1}, {"measurement": "level of expressed mRNA in the presence of chemical substance / level in the absence of chemical substance", "setting": "yeast gene YML013W", "result": 1.0}, {"measurement": "level of expressed mRNA in the presence of chemical substance / level in the absence of chemical substance", "setting": "yeast gene YML029W", "result": 1.5}, {"measurement": "level of expressed mRNA in the presence of chemical substance / level in the absence of chemical substance", "setting": "yeast gene YML041C", "result": 1.0}, {"measurement": "level of expressed mRNA in the presence of chemical substance / level in the absence of chemical substance", "setting": "yeast gene YML079W", "result": 1.7}, {"measurement": "The level of expressed mRNA in the presence of chemical substance/The level of expressed mRNA in the absence of chemical substance", "setting": "yeast gene YML117W", "result": 2.2}, {"measurement": "The level of expressed mRNA in the presence of chemical substance/The level of expressed mRNA in the absence of chemical substance", "setting": "yeast gene YMR009W", "result": 1.9}, {"measurement": "The level of expressed mRNA in the presence of chemical substance/The level of expressed mRNA in the absence of chemical substance", "setting": "yeast gene YMR067C", "result": 0.9}, {"measurement": "level of expressed mRNA in the presence of chemical substance / level in the absence of chemical substance", "setting": "yeast gene YMR068W", "result": 0.7}, {"measurement": "level of expressed mRNA in the presence of chemical substance / level in the absence of chemical substance", "setting": "yeast gene YMR071C", "result": 2.0}, {"measurement": "The level of expressed mRNA in the presence of chemical substance/The level of expressed mRNA in the absence of chemical substance", "setting": "yeast gene YMR090W", "result": 9.5}, {"measurement": "The level of expressed mRNA in the presence of chemical substance/The level of expressed mRNA in the absence of chemical substance", "setting": "yeast gene YMR095C", "result": 2.0}, {"measurement": "The level of expressed mRNA in the presence of chemical substance/The level of expressed mRNA in the absence of chemical substance", "setting": "yeast gene YMR097C", "result": 1.0}, {"measurement": "The level of expressed mRNA in the presence of chemical substance/The level of expressed mRNA in the absence of chemical substance", "setting": "yeast gene YMR102C", "result": 2.9}, {"measurement": "The level of expressed mRNA in the presence of chemical substance/The level of expressed mRNA in the absence of chemical substance", "setting": "yeast gene YMR107W", "result": 3.9}, {"measurement": "level of expressed mRNA in the presence of chemical substance / level in the absence of chemical substance", "setting": "yeast gene YMR160W", "result": 1.3}, {"measurement": "The level of expressed mRNA in the presence of chemical substance/The level of expressed mRNA in the absence of chemical substance", "setting": "yeast gene YMR180C", "result": 0.9}, {"measurement": "The level of expressed mRNA in the presence of chemical substance/The level of expressed mRNA in the absence of chemical substance", "setting": "yeast gene YMR184W", "result": 5.4}, {"measurement": "The level of expressed mRNA in the presence of chemical substance/The level of expressed mRNA in the absence of chemical substance", "setting": "yeast gene YMR191W", "result": 2.4}, {"measurement": "The level of expressed mRNA in the presence of chemical substance/The level of expressed mRNA in the absence of chemical substance", "setting": "yeast gene YMR295C", "result": 1.0}, {"measurement": "The level of expressed mRNA in the presence of chemical substance/The level of expressed mRNA in the absence of chemical substance", "setting": "yeast gene YMR316W", "result": 2.9}, {"measurement": "level of expressed mRNA in the presence of chemical substance / level in the absence of chemical substance", "setting": "yeast gene YNL026W", "result": 1.0}, {"measurement": "The level of expressed mRNA in the presence of chemical substance/The level of expressed mRNA in the absence of chemical substance", "setting": "yeast gene YNL044W", "result": 0.9}]}
